{"source": "paper PMC10065799", "about": "“High-throughput profiling of sequence recognition by tyrosine kinases and SH2 domains using bacterial peptide display” (eLife, 2023)", "assay_in_all_cases": "pTyr-Var library bacterial peptide display kinase screen (enrichment scores)", "key": {"c-Src kinase domain": {"biological_target": "c-Src kinase domain (Homo sapiens, UniProt P12931)", "assay_type": "biochemical", "settings": "sheet \"Src\""}, "Fer kinase domain": {"system": "Fer kinase domain", "assay_type": "biochemical, mouse", "settings": "sheet \"Fer\""}, "EPHB2 kinase domain": {"system": "EPHB2 kinase domain", "assay_type": "biochemical, human", "settings": "sheet EPHB2; effect of variant peptide relative to its reference peptide in the pTyr-Var library screen (enrichment scores)"}, "c-Abl kinase domain": {"biological_target": "T1, c-Abl kinase domain (Mus musculus, UniProt P00520)", "T1 sequence (P00520 242-493 limits assumed)": "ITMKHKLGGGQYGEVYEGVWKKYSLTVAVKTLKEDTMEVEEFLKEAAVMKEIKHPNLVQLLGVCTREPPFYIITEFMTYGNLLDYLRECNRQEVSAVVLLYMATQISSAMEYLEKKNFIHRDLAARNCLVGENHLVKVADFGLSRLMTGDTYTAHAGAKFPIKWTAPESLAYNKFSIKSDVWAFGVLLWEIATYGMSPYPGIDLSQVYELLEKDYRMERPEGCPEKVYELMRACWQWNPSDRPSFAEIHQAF", "assay_type": "biochemical"}, "EPHB1 kinase domain": {"system": "EPHB1 kinase domain", "assay_type": "biochemical, human", "settings": "for Screen (variant relative to reference peptide, measured in the pTyr-Var library screen): sheet \"EPHB1\", variant seq vs reference seq, bacterial peptide display enrichment; for Screen: sheet EPHB1, effect of the variant peptide relative to its reference peptide in the pTyr-Var library screen (enrichment scores)"}, "[1]": {"settings": "variant peptide versus its reference peptide in the pTyr-Var library screen"}, "[2]": {"settings": "variant peptide relative to its reference peptide, pTyr-Var library screen enrichment"}, "[3]": {"settings": "fig5-data2, sheet \"Abl\", Screen for the variant/reference peptide pair, pTyr-Var library"}, "[4]": {"settings": "value of the variant peptide against its reference peptide in the pTyr-Var library screen with Fer"}, "[5]": {"settings": "sheet \"Abl\", effect of variant peptide relative to its reference peptide in pTyr-Var library screen (enrichment)"}, "[6]": {"settings": "effect of the variant peptide relative to its reference peptide in the pTyr-Var library screen"}}, "note": "Square brackets hold non-standard residues; d marks the D form. pY = N[C@@H](Cc1ccc(OP(=O)(O)O)cc1)C(=O)O", "data": [{"substance": "ACCLLYHGDVV [TUBA4A_Y319_R320H]", "values": [{"measurement": "Screen", "setting": "c-Src kinase domain; [1]", "value": -0.1128}, {"measurement": "Screen", "setting": "Fer kinase domain; [2]", "value": 1.239}]}, {"substance": "ADARMYGVHPW [PLP1_Y207_L210H]", "values": [{"measurement": "Screen", "setting": "c-Src kinase domain; [1]", "value": -0.8602}, {"measurement": "Screen", "setting": "EPHB2 kinase domain", "value": -2.321}]}, {"substance": "ADRLEYSRTGL [MMUT_Y287_G284R]", "values": [{"measurement": "Screen", "setting": "EPHB2 kinase domain", "value": -0.9943}]}, {"substance": "AGQEGYDRLRP [RAC1_Y64_D63G]", "values": [{"measurement": "Screen", "setting": "c-Abl kinase domain; [3]", "value": -0.6801}]}, {"substance": "ALPGEYIPTVF [RAC1_Y32_F28L]", "values": [{"measurement": "Screen", "setting": "c-Abl kinase domain; [3]", "value": -1.258}]}, {"substance": "APAHKYHGGGG [HBD_Y146_L142P]", "values": [{"measurement": "Screen", "setting": "c-Abl kinase domain; [3]", "value": 0.5925}]}, {"substance": "ARVANYHRDGP [CAT_Y386_Q387H]", "values": [{"measurement": "Screen", "setting": "c-Abl kinase domain; [3]", "value": 0.869}]}, {"substance": "AVEDQYFRVDC [FHL1_Y207_C209R_YF]", "values": [{"measurement": "Screen", "setting": "c-Abl kinase domain; [3]", "value": -2.172}]}, {"substance": "Ac-QSLEKS[pY]ELLDGG-NH2 [ACTB_Y240_P243L]", "values": [{"measurement": "Screen", "setting": "c-Abl kinase domain; [3]", "value": -1.856}]}, {"substance": "CLGNQYVNVMN [SLC3A1_Y461_R456C]", "values": [{"measurement": "Screen (variant relative to reference peptide, measured in the pTyr-Var library screen)", "setting": "EPHB1 kinase domain", "value": -0.4562}]}, {"substance": "DDEVFYSPLSL [OTC_Y317_R320L]", "values": [{"measurement": "Screen", "setting": "c-Src kinase domain; [1]", "value": 2.664}, {"measurement": "Screen", "setting": "Fer kinase domain; [4]", "value": 2.858}]}, {"substance": "DDFDLYGGEKF [PTPN11_Y66_Y62D_YF]", "values": [{"measurement": "Screen", "setting": "c-Src kinase domain; [1]", "value": -0.3825}, {"measurement": "Screen", "setting": "c-Abl kinase domain; [3]", "value": -0.3703}, {"measurement": "Screen", "setting": "Fer kinase domain; [2]", "value": 1.351}]}, {"substance": "DLAHKYHGGGG [HBB_Y146_A141D]", "values": [{"measurement": "Screen", "setting": "c-Abl kinase domain; [3]", "value": -0.5192}]}, {"substance": "DLGIQYKVLKP [CTNNA1_Y177_A179V]", "values": [{"measurement": "Screen", "setting": "c-Abl kinase domain; [3]", "value": 0.1591}]}, {"substance": "DLSEVYKPCRK [CCDC93_Y176_R179C]", "values": [{"measurement": "Screen", "setting": "c-Abl kinase domain; [3]", "value": 0.05093}]}, {"substance": "DNLSNYVFQGQ [GRIN2A_Y978_N976S]", "values": [{"measurement": "Screen", "setting": "EPHB1 kinase domain", "value": 0.2649}]}, {"substance": "DTLLEYLENPK [CYCS_Y68_M66L]", "values": [{"measurement": "Screen", "setting": "c-Abl kinase domain; [3]", "value": -1.313}]}, {"substance": "DWQQEYVLNES [TGM1_Y267_R264Q]", "values": [{"measurement": "Screen", "setting": "c-Src kinase domain; [1]", "value": 1.018}]}, {"substance": "DWRQEYVLNEP [TGM1_Y267_S272P]", "values": [{"measurement": "Screen", "setting": "c-Src kinase domain; [1]", "value": 0.4859}]}, {"substance": "EDKFMYSEFPQ [PTEN_Y240_F241S]", "values": [{"measurement": "Screen", "setting": "c-Src kinase domain; [1]", "value": 0.2043}]}, {"substance": "EGNEQYEGFCV [GRIA3_Y451_R450Q_YF]", "values": [{"measurement": "Screen", "setting": "Fer kinase domain; [4]", "value": 2.326}]}, {"substance": "EKQLLYLENKT [FRK_Y132_S133L]", "values": [{"measurement": "Screen", "setting": "c-Abl kinase domain; [3]", "value": 1.576}]}, {"substance": "ENFSEYQEISV [HEMGN_Y150_A154S]", "values": [{"measurement": "Screen", "setting": "c-Abl kinase domain; [3]", "value": 0.8508}, {"measurement": "Screen", "setting": "EPHB1 kinase domain", "value": 0.04896}]}, {"substance": "ESMQSYDLDFP [UNC13B_Y243_D238E_YF]", "values": [{"measurement": "Screen", "setting": "c-Abl kinase domain; [5]", "value": 0.2086}]}, {"substance": "ETCLAYMEKRI [TEKT1_Y118_R119M]", "values": [{"measurement": "Screen", "setting": "c-Abl kinase domain; [5]", "value": -0.666}]}, {"substance": "ETELPYQELQG [TYROBP_Y91_S89L]", "values": [{"measurement": "Screen", "setting": "c-Src kinase domain; [1]", "value": 0.7128}]}, {"substance": "FCRHNYGAVES [HLA-DRB1_Y112_V114A_YF]", "values": [{"measurement": "Screen", "setting": "EPHB2 kinase domain", "value": -2.259}]}, {"substance": "FDNSVYQKTTE [LDLR_Y828_P826S]", "values": [{"measurement": "Screen", "setting": "c-Abl kinase domain; [3]", "value": 1.184}]}, {"substance": "FNDSAYNQQLI [ZPLD1_Y198_T197A_YF]", "values": [{"measurement": "Screen", "setting": "c-Abl kinase domain; [5]", "value": 1.136}]}, {"substance": "FRTGHYLCNAC [GATA1_Y223_D218Y_YF]", "values": [{"measurement": "Screen", "setting": "c-Abl kinase domain; [3]", "value": 1.235}]}, {"substance": "GDAMLYFPSVS [GPR143_Y177_A173D_YF]", "values": [{"measurement": "Screen", "setting": "c-Abl kinase domain; [3]", "value": 0.9829}]}, {"substance": "GHLFAYNWISI [BEST1_Y227_D228N_YF]", "values": [{"measurement": "Screen", "setting": "Fer kinase domain; [4]", "value": -1.638}]}, {"substance": "GNLLIYTKFGK [HGD_Y166_E168K]", "values": [{"measurement": "Screen", "setting": "c-Src kinase domain; [6]", "value": -1.556}, {"measurement": "Screen", "setting": "c-Abl kinase domain; [3]", "value": 0.592}, {"measurement": "Screen", "setting": "EPHB1 kinase domain", "value": -0.9666}]}, {"substance": "GPQSLYNGLVA [UCP2_Y79_R76Q]", "values": [{"measurement": "Screen", "setting": "c-Src kinase domain; [1]", "value": 1.82}]}, {"substance": "GRSTFYWPSPR [GAGE12J_Y10_R13S_YF]", "values": [{"measurement": "Screen", "setting": "c-Abl kinase domain; [3]", "value": -1.338}]}, {"substance": "GRTGHYLCNAC [GATA1_Y223_D218G]", "values": [{"measurement": "Screen", "setting": "c-Abl kinase domain; [3]", "value": 0.2005}]}, {"substance": "GVLDIYGFDIL [MYO1A_Y382_E385D]", "values": [{"measurement": "Screen", "setting": "c-Src kinase domain; [1]", "value": 0.6089}]}, {"substance": "HNELFYEAAEH [VANGL1_Y345_E347A_YF]", "values": [{"measurement": "Screen", "setting": "c-Src kinase domain; [1]", "value": 1.947}, {"measurement": "Screen", "setting": "Fer kinase domain; [2]", "value": 1.287}]}, {"substance": "KACKHYLTKRT [ZBTB5_Y118_T121K]", "values": [{"measurement": "Screen", "setting": "c-Abl kinase domain; [5]", "value": -3.546}]}, {"substance": "KFFRVYQGQQP [MUTYH_Y494_V490F]", "values": [{"measurement": "Screen", "setting": "c-Abl kinase domain; [3]", "value": -1.003}]}, {"substance": "KGNMFYENSFA [EGFR_Y113_R108K_YF]", "values": [{"measurement": "Screen", "setting": "Fer kinase domain; [4]", "value": -0.4996}]}, {"substance": "KKFPDYIQIAR [SGMS2_Y59_M64R_YF]", "values": [{"measurement": "Screen", "setting": "c-Abl kinase domain; [5]", "value": 1.322}, {"measurement": "Screen (variant relative to reference peptide, measured in the pTyr-Var library screen)", "setting": "EPHB1 kinase domain", "value": -0.1665}]}, {"substance": "KKHIPYSEHKS [CSNK1G2_Y206_R207S]", "values": [{"measurement": "Screen", "setting": "Fer kinase domain; [4]", "value": -1.379}, {"measurement": "Screen", "setting": "EPHB1 kinase domain", "value": -1.865}]}, {"substance": "KLADIYQAELR [GFAP_Y116_V115I]", "values": [{"measurement": "Screen", "setting": "c-Src kinase domain; [6]", "value": 1.355}]}, {"substance": "KLPDAYEPLIL [G6PD_Y437_R439P]", "values": [{"measurement": "Screen", "setting": "Fer kinase domain; [4]", "value": 1.978}]}, {"substance": "KNSSIYVVANI [VNN1_Y134_N131S]", "values": [{"measurement": "Screen", "setting": "c-Abl kinase domain; [5]", "value": 4.539}]}, {"substance": "KPGLIYNKVNP [SPRED3_Y72_V71I]", "values": [{"measurement": "Screen", "setting": "c-Abl kinase domain; [5]", "value": -0.1763}]}, {"substance": "KSVEEYANCHL [TF_Y593_P589S]", "values": [{"measurement": "Screen", "setting": "c-Abl kinase domain; [5]", "value": 0.8616}]}, {"substance": "LESETYRRLLD [KRT12_Y429_I426S]", "values": [{"measurement": "Screen", "setting": "c-Abl kinase domain; [3]", "value": -1.592}]}, {"substance": "LGNIVYSSLCG [BCOR_Y90_P85L]", "values": [{"measurement": "Screen", "setting": "c-Src kinase domain; [6]", "value": 0.02175}, {"measurement": "Screen", "setting": "Fer kinase domain; [4]", "value": 0.7069}]}, {"substance": "LIFTNYEVGKD [GSTP1_Y112_A114V_YF]", "values": [{"measurement": "Screen", "setting": "EPHB1 kinase domain", "value": 1.043}]}]}
